This is an account of results in EP0151577B1 (priority 1983, dated 1984).

The test system of one data set is M. Leprae. As to the kind of experiment: Incorporation of 3H-DOPA by M. leprae in vitro. The conditions noted are these: 6 h. It is filed as cell-based, Mycobacterium leprae. The source says: Le tableau 6 rassemble des résultats d'essai concernant l'activité du DF-5HTP sur l'incorporation de la DOPA dans les Mycobacteries de la lèpre. Le protocole experimental était celui décrit dans JAYARAMAN, P., […], P.R., MESTER, M. and MESTER, L. Inhibition of the incorporation of ^3H-DOPA in Mycobacterium leprae by Desoxyfructo-serotonin. Biochem. Pharm., 29, 2526,1980.
On a inoculé 5 x 10^6 M. leprae par tube; le milieu était un tampon phosphate à pH 6,8. La quantité de 3H-DOPA était de 1 µ. Ci/tube.
Protocole: Chaque tube de 0,5 ml est inocule de 5 x 10^6 M. leprae et de 1 µ Ci de ^3H-DOPA. Après 6 heures, I'incorporation de la DOPA radioactive est enregistrée en DPM selon la technique utilisée dans JAYARAMAN, P., […], P.R., MESTER, M. and MESTER, L. Inhibition of the Incorporation of ^3H-DOPA in Mycobacterium leprae by Desoxyfructo-serotonin. Biochem. Pharm., 29,2526,1980.

The nature of data set [1]: In vivo metabolism of radioactive compounds, hamster plasma. The conditions noted are these: au bout de 4 heures, figure 2. The source says:
La mesure de la radioactivite des diverses fractions isolées du sang des hamsters traités permet de caractériser les metabolites, lesquels sont ainsi isolés et identifies par électrophorèse. Les metabolites acides HIAA et IAA sont séparés ensemble.
On a porté le temps en abscisses (exprimé en heures) et en ordonnées le pourcentage du compose caractérisé dans le plasma.

In data set [2] the test system is cellules des neuroblastomes. Nature of the data set: Inhibition of serotonin incorporation into neuroblastoma cells in vitro. It is filed as cell-based.

As to “désoxyfructo-sérotonine [DF-5HT, reference compound]”, the “incorporation de 3H-DOPA par M. Leprae” value in the data set on M. Leprae (1 µg/ml, Armadillo M.Leprae N°2275/5, témoins 5977) stood at 2431 DPM; in the data set with M. Leprae (1 µg/ml, Armadillo M.Leprae N°2275/5 Tués par la chaleur, témoins 915), 410 DPM; in the data set on M. Leprae (1 µg/ml, Armadillo M.Leprae N°2457/103, témoins 4215) it was 2575 DPM; in the data set on M. Leprae (1 µg/ml, Armadillo M.Leprae N°2457/103 Tués par la chaleur, témoins 2855), 2110 DPM; in the data set on M. Leprae (5 µg/ml, Armadillo M.Leprae N°2275/5, témoins 5977) it was 2264 DPM; with M. Leprae (5 µg/ml, Armadillo M.Leprae N°2275/5 Tués par la chaleur, témoins 915), 566 DPM. Besides, the “incorporation de 3H-DOPA par M. Leprae” value with M. Leprae (5 µg/ml, Armadillo M.Leprae N°2457/103, témoins 4215) came out at 1485 DPM; with M. Leprae (5 µg/ml, Armadillo M.Leprae N°2457/103 Tués par la chaleur, témoins 2855), 1640 DPM. The “niveau du compose non transformé dans le plasma” value in data set [1] is recorded as “insignifiante”. The “% Inhibition à 0°C de l'incorporation de la sérotonine dans les cellules nerveuses” value in data set [2] (0°C) is recorded as 95%. Moreover, the “% Inhibition à 25°C de l'incorporation de la sérotonine dans les cellules nerveuses” value in data set [2] (10-^4 Mol, 25°C) is 90%.
